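Method: 48-hour compound exposure of cells in 96-well plates, five concentrations, linear interpolation of endpoints. GI50 is the concentration that inhibits growth by half.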 Active and inactive are the calls of the source. Cut-off read from the data, not from the text of the source: active = GI50 up to about 1.1 µM and inactive = higher.
Assays:
Test in all cases: growth of human tumour cells (NCI), 48 h
DLD-1 = system: DLD-1
HCC 2998 = system: HCC 2998
HT-29 = system: HT-29
K562 = system: K562
M19-MEL = system: M19-MEL
NCI-H226 = system: NCI-H226
OVCAR-8 = system: OVCAR-8
RXF 393 = system: RXF 393
SF-268 = system: SF-268
SK-MEL-28 = system: SK-MEL-28
SK-MEL-5 = system: SK-MEL-5
SNB-19 = system: SNB-19
SNB-75 = system: SNB-75
SR = system: SR
TK-10 = system: TK-10
UACC-62 = system: UACC-62
OVCAR-4 = system: OVCAR-4
DU-145 = system: DU-145
NCI/ADR-RES = system: NCI/ADR-RES
PC-3 = system: PC-3

| Structure (SMILES) | GI50 (DLD-1) | GI50 (HCC 2998) | GI50 (HT-29) | GI50 (K562) | GI50 (M19-MEL) | GI50 (NCI-H226) | GI50 (OVCAR-8) | GI50 (RXF 393) | GI50 (SF-268) | GI50 (SK-MEL-28) | GI50 (SK-MEL-5) | GI50 (SNB-19) | GI50 (SNB-75) | GI50 (SR) | GI50 (TK-10) | GI50 (UACC-62) | GI50 (OVCAR-4) | GI50 (DU-145) | GI50 (NCI/ADR-RES) | GI50 (PC-3) |
| --- | --- | --- | --- | --- | --- | --- | --- | --- | --- | --- | --- | --- | --- | --- | --- | --- | --- | --- | --- | --- |
| COc1ccc2c(c1)C(=O)c1ccc(OC)cc1C2=S | 55.5 µM (inactive) | > 100 µM (inactive) | > 100 µM (inactive) | > 100 µM (inactive) | > 100 µM (inactive) | > 100 µM (inactive) | > 100 µM (inactive) | > 100 µM (inactive) | 81.5 µM (inactive) | > 100 µM (inactive) | > 100 µM (inactive) | > 100 µM (inactive) | 30.3 µM (inactive) | > 100 µM (inactive) | > 100 µM (inactive) | 49.1 µM (inactive) | – | – | – | – |
| COC(=O)c1csnn1 | – | > 100 µM (inactive) | > 100 µM (inactive) | > 100 µM (inactive) | > 100 µM (inactive) | > 100 µM (inactive) | > 100 µM (inactive) | – | > 100 µM (inactive) | > 100 µM (inactive) | > 100 µM (inactive) | > 100 µM (inactive) | – | > 100 µM (inactive) | > 100 µM (inactive) | > 100 µM (inactive) | – | – | – | – |
| N#Cc1nc(Nc2cccc3ccccc23)sc1N | 48.4 µM (inactive) | 20.3 µM (inactive) | 41.1 µM (inactive) | 25.8 µM (inactive) | 28.5 µM (inactive) | 41.8 µM (inactive) | 31.4 µM (inactive) | – | 20.4 µM (inactive) | 37.9 µM (inactive) | – | 38.8 µM (inactive) | 42.8 µM (inactive) | 3.05 µM (inactive) | 40.6 µM (inactive) | 21.2 µM (inactive) | 57.7 µM (inactive) | – | – | – |
| COc1ccc(CC2c3c(cc(OC)c(OC)c3OC)CCN2C)cc1OC (centres undefined) | > 100 µM (inactive) | > 100 µM (inactive) | > 100 µM (inactive) | > 100 µM (inactive) | – | – | > 100 µM (inactive) | – | > 100 µM (inactive) | > 100 µM (inactive) | > 100 µM (inactive) | > 100 µM (inactive) | > 100 µM (inactive) | – | > 100 µM (inactive) | – | 78.7 µM (inactive) | – | – | – |
| CC(=O)NC(CCCNC(=O)NCCCl)C(=O)NCc1ccccc1 (centres undefined) | – | > 100 µM (inactive) | > 100 µM (inactive) | > 100 µM (inactive) | > 100 µM (inactive) | > 100 µM (inactive) | > 100 µM (inactive) | > 100 µM (inactive) | > 100 µM (inactive) | > 100 µM (inactive) | > 100 µM (inactive) | > 100 µM (inactive) | > 100 µM (inactive) | > 100 µM (inactive) | > 100 µM (inactive) | > 100 µM (inactive) | > 100 µM (inactive) | – | – | – |
| CN1C/C(=C\C=C\c2ccccc2)C(=O)/C(=C/C=C/c2ccccc2)C1 | > 100 µM (inactive) | > 100 µM (inactive) | > 100 µM (inactive) | > 100 µM (inactive) | > 100 µM (inactive) | > 100 µM (inactive) | 82.2 µM (inactive) | > 100 µM (inactive) | > 100 µM (inactive) | > 100 µM (inactive) | > 100 µM (inactive) | 39.6 µM (inactive) | > 100 µM (inactive) | – | > 100 µM (inactive) | > 100 µM (inactive) | > 100 µM (inactive) | – | – | – |
| CCc1cccc(C)c1NS(=O)(=O)c1ccccc1 | > 100 µM (inactive) | > 100 µM (inactive) | > 100 µM (inactive) | > 100 µM (inactive) | > 100 µM (inactive) | 24.3 µM (inactive) | > 100 µM (inactive) | > 100 µM (inactive) | – | > 100 µM (inactive) | > 100 µM (inactive) | – | > 100 µM (inactive) | – | > 100 µM (inactive) | > 100 µM (inactive) | > 100 µM (inactive) | – | – | – |
| CC1=C(C(=O)CC(=O)C(=O)Nc2cc(C)ccc2C)Sc2ccccc2N1 | 92.3 µM (inactive) | > 100 µM (inactive) | > 100 µM (inactive) | > 100 µM (inactive) | > 100 µM (inactive) | > 100 µM (inactive) | 66.8 µM (inactive) | > 100 µM (inactive) | > 100 µM (inactive) | > 100 µM (inactive) | > 100 µM (inactive) | > 100 µM (inactive) | – | – | > 100 µM (inactive) | > 100 µM (inactive) | > 100 µM (inactive) | – | – | – |
| CCOP(=O)(OCC)/C(C#N)=C/c1ccc[nH]1 | > 100 µM (inactive) | – | > 100 µM (inactive) | > 100 µM (inactive) | > 100 µM (inactive) | > 100 µM (inactive) | > 100 µM (inactive) | > 100 µM (inactive) | > 100 µM (inactive) | > 100 µM (inactive) | > 100 µM (inactive) | > 100 µM (inactive) | 55.7 µM (inactive) | > 100 µM (inactive) | 74.6 µM (inactive) | > 100 µM (inactive) | > 100 µM (inactive) | – | – | – |
| O=C1c2ccccc2CC12Cc1ccc3c(c1C2=O)CCCC3 (centres undefined) | – | > 100 µM (inactive) | 6.49 µM (inactive) | 21.6 µM (inactive) | – | 24 µM (inactive) | 26 µM (inactive) | 4.13 µM (inactive) | > 100 µM (inactive) | 47.2 µM (inactive) | 6.19 µM (inactive) | 20.7 µM (inactive) | 6.52 µM (inactive) | 2.87 µM (inactive) | > 100 µM (inactive) | 8.2 µM (inactive) | 3.29 µM (inactive) | > 100 µM (inactive) | 7.06 µM (inactive) | 66.7 µM (inactive) |
| Cc1ccc(SC2C(C)(C)N(C(C)C)P2(=O)N(C(C)C)C(C)C)cc1 (centres undefined) | – | 64.3 µM (inactive) | 26 µM (inactive) | 17.7 µM (inactive) | 26.7 µM (inactive) | > 100 µM (inactive) | 45.5 µM (inactive) | – | 52 µM (inactive) | > 95.7 µM (inactive) | 22.4 µM (inactive) | 51.5 µM (inactive) | > 100 µM (inactive) | 14.2 µM (inactive) | > 100 µM (inactive) | 42.1 µM (inactive) | > 64.9 µM (inactive) | – | – | – |
| CN(c1ccccc1)C1C(=O)N(c2ccccc2)C1/C=C/c1ccccc1 (centres undefined) | > 100 µM (inactive) | > 100 µM (inactive) | > 100 µM (inactive) | – | > 100 µM (inactive) | > 100 µM (inactive) | > 100 µM (inactive) | > 100 µM (inactive) | > 100 µM (inactive) | > 100 µM (inactive) | > 100 µM (inactive) | > 100 µM (inactive) | > 100 µM (inactive) | > 100 µM (inactive) | > 100 µM (inactive) | 72.6 µM (inactive) | – | – | – | – |
| CCOC(C[C@H](O)[C@H]1COC(=S)S1)OCC | – | > 100 µM (inactive) | > 100 µM (inactive) | – | > 100 µM (inactive) | > 100 µM (inactive) | > 100 µM (inactive) | 4.65 µM (inactive) | > 100 µM (inactive) | – | > 100 µM (inactive) | > 100 µM (inactive) | – | > 100 µM (inactive) | > 100 µM (inactive) | > 100 µM (inactive) | – | – | – | – |
| COc1cc2ccnc3c(=C(SC)SC)c(=O)c(c1OC)c23 | 13.9 µM (inactive) | 16.4 µM (inactive) | 12.3 µM (inactive) | 3.29 µM (inactive) | 16 µM (inactive) | – | 10.6 µM (inactive) | 13 µM (inactive) | 22.2 µM (inactive) | 13 µM (inactive) | > 10 µM (inactive) | 53.2 µM (inactive) | 10.2 µM (inactive) | – | 14 µM (inactive) | 17.8 µM (inactive) | 15.8 µM (inactive) | – | – | – |
| Oc1nnnc2c1sc1ncccc12 | – | > 100 µM (inactive) | > 100 µM (inactive) | > 100 µM (inactive) | – | > 100 µM (inactive) | > 100 µM (inactive) | > 100 µM (inactive) | > 100 µM (inactive) | > 100 µM (inactive) | > 100 µM (inactive) | > 100 µM (inactive) | 25.1 µM (inactive) | 5.7 µM (inactive) | > 100 µM (inactive) | > 100 µM (inactive) | > 100 µM (inactive) | > 100 µM (inactive) | > 100 µM (inactive) | > 100 µM (inactive) |
| CN1C/C(=C\c2ccco2)c2nc(N)nc(-c3ccco3)c2C1 | > 100 µM (inactive) | > 100 µM (inactive) | 99.8 µM (inactive) | > 100 µM (inactive) | > 100 µM (inactive) | 34.5 µM (inactive) | 75.2 µM (inactive) | > 100 µM (inactive) | > 100 µM (inactive) | > 100 µM (inactive) | 72.8 µM (inactive) | > 100 µM (inactive) | 85.3 µM (inactive) | – | > 100 µM (inactive) | > 100 µM (inactive) | – | – | – | – |
| CCOC(=O)Oc1cc2c(c(OC)c1OC)-c1ccc(OC)c(=O)cc1C(NC(C)=O)CC2 (centres undefined) | – | 0.0176 µM (active) | 0.0187 µM (active) | 0.0138 µM (active) | < 0.0164 µM (active) | 0.183 µM (active) | 0.0286 µM (active) | < 0.0137 µM (active) | 0.0197 µM (active) | < 0.215 µM (active) | 0.0116 µM (active) | 0.0277 µM (active) | 0.0119 µM (active) | < 0.01 µM (active) | 3.78 µM (inactive) | 0.0156 µM (active) | 11.2 µM (inactive) | 0.1 µM (active) | 9.33 µM (inactive) | 0.0278 µM (active) |
| C[C@]12C=CC(=O)C=C1CC[C@@H]1[C@@H]2CC[C@]2(C)OC(=O)CC[C@@H]12 [TESTOLACTONE] | > 500 µM (inactive) | 372 µM (inactive) | > 493 µM (inactive) | 449 µM (inactive) | – | 417 µM (inactive) | > 462 µM (inactive) | 437 µM (inactive) | > 489 µM (inactive) | 498 µM (inactive) | 429 µM (inactive) | > 500 µM (inactive) | 292 µM (inactive) | 318 µM (inactive) | 499 µM (inactive) | 323 µM (inactive) | 486 µM (inactive) | > 343 µM (inactive) | > 492 µM (inactive) | > 500 µM (inactive) |

Source: ChEMBL document CHEMBL1201862, “PubChem BioAssay data set” (2004)
